Reference: PubChem BioAssay (NCI)
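Tested at 5 concentrations; 48 h exposure; 96-well plates; endpoints linearly interpolated, else capped at highest concentration. TGI: concentration producing complete growth inhibition.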

Assays:
Test in all cases: DTP human tumour cell line panel, 48 h
PC-3 prostate = test system: PC-3 prostate
SK-OV-3 ovarian = test system: SK-OV-3 ovarian
K-562 leukemia = test system: K-562 leukemia
HCC-2998 colon = test system: HCC-2998 colon
MCF7 breast = test system: MCF7 breast
RXF 393 renal = test system: RXF 393 renal
NCI-H23 lung = test system: NCI-H23 lung
A498 renal = test system: A498 renal
A549 NSCLC = test system: A549 NSCLC
UO-31 renal = test system: UO-31 renal
MALME-3M melanoma = test system: MALME-3M melanoma
EKVX NSCLC = test system: EKVX NSCLC
LOX IMVI melanoma = test system: LOX IMVI melanoma
COLO 205 colon = test system: COLO 205 colon
CAKI-1 renal = test system: CAKI-1 renal
786-0 renal = test system: 786-0 renal
MOLT-4 leukemia = test system: MOLT-4 leukemia
M14 melanoma = test system: M14 melanoma
RPMI-8226 leukemia = test system: RPMI-8226 leukemia
HOP-92 NSCLC = test system: HOP-92 NSCLC
TK-10 renal = test system: TK-10 renal
SR leukemia = test system: SR leukemia
SN12C renal = test system: SN12C renal
HL-60(TB) leukemia = test system: HL-60(TB) leukemia
SF-268 CNS = test system: SF-268 CNS
T-47D breast = test system: T-47D breast
HCT-15 colon = test system: HCT-15 colon
NCI/ADR-RES ovarian = test system: NCI/ADR-RES ovarian
NCI-H226 lung = test system: NCI-H226 lung
SF-539 CNS = test system: SF-539 CNS
SK-MEL-28 melanoma = test system: SK-MEL-28 melanoma
HT29 colon = test system: HT29 colon
UACC-62 melanoma = test system: UACC-62 melanoma
IGROV1 ovarian = test system: IGROV1 ovarian
KM12 colon = test system: KM12 colon
SNB-19 CNS = test system: SNB-19 CNS
OVCAR-8 ovarian = test system: OVCAR-8 ovarian
OVCAR-4 ovarian = test system: OVCAR-4 ovarian
NCI-H460 lung = test system: NCI-H460 lung
SF-295 CNS = test system: SF-295 CNS
SNB-75 CNS = test system: SNB-75 CNS
HOP-62 NSCLC = test system: HOP-62 NSCLC
SK-MEL-5 melanoma = test system: SK-MEL-5 melanoma
CCRF-CEM leukemia = test system: CCRF-CEM leukemia
OVCAR-5 ovarian = test system: OVCAR-5 ovarian
MDA-N = test system: MDA-N
SW-620 colon = test system: SW-620 colon
BT-549 breast = test system: BT-549 breast
MDA-MB-435 = test system: MDA-MB-435
UACC-257 melanoma = test system: UACC-257 melanoma
HS 578T breast = test system: HS 578T breast
NCI-H522 lung = test system: NCI-H522 lung
MDA-MB-231 breast = test system: MDA-MB-231 breast
U251 CNS = test system: U251 CNS
OVCAR-3 ovarian = test system: OVCAR-3 ovarian
HCT-116 colon = test system: HCT-116 colon
SK-MEL-2 melanoma = test system: SK-MEL-2 melanoma
ACHN renal = test system: ACHN renal
DU-145 prostate = test system: DU-145 prostate

NC(Cc1ccc(N(CCCl)CCCl)cc1)C(=O)NC(CCC(=O)O)C(=O)O (configuration not stated)
TGI (PC-3 prostate): > 100 µM | TGI (SK-OV-3 ovarian): > 100 µM | TGI (K-562 leukemia): > 100 µM | TGI (HCC-2998 colon): > 100 µM | TGI (MCF7 breast): > 100 µM | TGI (RXF 393 renal): > 100 µM | TGI (NCI-H23 lung): > 100 µM | TGI (A498 renal): > 100 µM | TGI (A549 NSCLC): > 100 µM | TGI (UO-31 renal): > 100 µM | TGI (MALME-3M melanoma): > 100 µM | TGI (EKVX NSCLC): > 100 µM | TGI (LOX IMVI melanoma): > 100 µM | TGI (COLO 205 colon): > 100 µM | TGI (CAKI-1 renal): > 100 µM | TGI (786-0 renal): > 100 µM | TGI (MOLT-4 leukemia): > 100 µM | TGI (M14 melanoma): > 100 µM | TGI (RPMI-8226 leukemia): > 100 µM | TGI (HOP-92 NSCLC): > 100 µM | TGI (TK-10 renal): > 100 µM | TGI (SR leukemia): > 100 µM | TGI (SN12C renal): > 100 µM | TGI (HL-60(TB) leukemia): > 100 µM | TGI (SF-268 CNS): > 100 µM | TGI (T-47D breast): > 100 µM | TGI (HCT-15 colon): > 100 µM | TGI (NCI/ADR-RES ovarian): > 100 µM | TGI (NCI-H226 lung): > 100 µM | TGI (SF-539 CNS): > 100 µM | TGI (SK-MEL-28 melanoma): > 100 µM | TGI (HT29 colon): > 100 µM | TGI (UACC-62 melanoma): > 100 µM | TGI (IGROV1 ovarian): > 100 µM | TGI (KM12 colon): > 100 µM | TGI (SNB-19 CNS): > 100 µM | TGI (OVCAR-8 ovarian): > 100 µM | TGI (OVCAR-4 ovarian): > 100 µM | TGI (NCI-H460 lung): > 100 µM | TGI (SF-295 CNS): > 100 µM | TGI (SNB-75 CNS): > 100 µM | TGI (HOP-62 NSCLC): > 100 µM | TGI (SK-MEL-5 melanoma): > 100 µM | TGI (CCRF-CEM leukemia): > 100 µM | TGI (OVCAR-5 ovarian): > 100 µM | TGI (MDA-N): > 100 µM | TGI (SW-620 colon): > 100 µM | TGI (BT-549 breast): > 100 µM | TGI (MDA-MB-435): > 100 µM | TGI (UACC-257 melanoma): > 100 µM | TGI (HS 578T breast): > 100 µM | TGI (NCI-H522 lung): > 100 µM | TGI (MDA-MB-231 breast): > 100 µM | TGI (U251 CNS): > 100 µM | TGI (OVCAR-3 ovarian): > 100 µM | TGI (HCT-116 colon): > 100 µM | TGI (SK-MEL-2 melanoma): > 100 µM | TGI (ACHN renal): > 100 µM | TGI (DU-145 prostate): > 100 µM

CC(C)=CC(Cc1ccccc1)S(=O)(=O)c1nc2ccccc2s1 (configuration not stated)
TGI (PC-3 prostate): 31.9 µM | TGI (SK-OV-3 ovarian): 47.5 µM | TGI (K-562 leukemia): 33.4 µM | TGI (HCC-2998 colon): 33.6 µM | TGI (MCF7 breast): 31.5 µM | TGI (RXF 393 renal): 41.9 µM | TGI (NCI-H23 lung): 48.8 µM | TGI (A498 renal): 35.5 µM | TGI (A549 NSCLC): 60.1 µM | TGI (UO-31 renal): 27.5 µM | TGI (MALME-3M melanoma): 32.1 µM | TGI (EKVX NSCLC): 41.7 µM | TGI (LOX IMVI melanoma): 11.9 µM | TGI (COLO 205 colon): 34.9 µM | TGI (CAKI-1 renal): 22.1 µM | TGI (786-0 renal): 33.1 µM | TGI (MOLT-4 leukemia): 7.95 µM | TGI (M14 melanoma): 31.2 µM | TGI (RPMI-8226 leukemia): 35 µM | TGI (HOP-92 NSCLC): 41.7 µM | TGI (TK-10 renal): 35.8 µM | TGI (SR leukemia): 5.24 µM | TGI (SN12C renal): 31.8 µM | TGI (HL-60(TB) leukemia): 9.62 µM | TGI (SF-268 CNS): 36.5 µM | TGI (T-47D breast): > 67.2 µM | TGI (HCT-15 colon): 49.5 µM | TGI (NCI/ADR-RES ovarian): 50 µM | TGI (NCI-H226 lung): 29.6 µM | TGI (SF-539 CNS): 30.8 µM | TGI (SK-MEL-28 melanoma): 32.3 µM | TGI (HT29 colon): 41.7 µM | TGI (UACC-62 melanoma): 46.5 µM | TGI (IGROV1 ovarian): 62.7 µM | TGI (KM12 colon): 35.8 µM | TGI (SNB-19 CNS): 32 µM | TGI (OVCAR-8 ovarian): 35.1 µM | TGI (OVCAR-4 ovarian): 37.1 µM | TGI (NCI-H460 lung): 50.1 µM | TGI (SF-295 CNS): 66.6 µM | TGI (SNB-75 CNS): 41.1 µM | TGI (HOP-62 NSCLC): 64.3 µM | TGI (SK-MEL-5 melanoma): 27.1 µM | TGI (CCRF-CEM leukemia): 7.49 µM | TGI (OVCAR-5 ovarian): 36.7 µM | TGI (MDA-N): 29.7 µM | TGI (SW-620 colon): 37.2 µM | TGI (BT-549 breast): 38.6 µM | TGI (MDA-MB-435): 32.4 µM | TGI (UACC-257 melanoma): 54.2 µM | TGI (HS 578T breast): > 80 µM | TGI (NCI-H522 lung): 29 µM | TGI (MDA-MB-231 breast): 52 µM | TGI (U251 CNS): 29.4 µM | TGI (OVCAR-3 ovarian): 29.2 µM | TGI (HCT-116 colon): 28.3 µM | TGI (SK-MEL-2 melanoma): 28.5 µM | TGI (ACHN renal): 42.9 µM | TGI (DU-145 prostate): 31.5 µM

O=C1C2=C(CC3=C(C2)CS(=O)(=O)C3)C(=O)C2=C1CC1=C(C2)CS(=O)(=O)C1
TGI (PC-3 prostate): 51.6 µM | TGI (SK-OV-3 ovarian): > 73.2 µM | TGI (K-562 leukemia): > 39.1 µM | TGI (HCC-2998 colon): > 51.6 µM | TGI (MCF7 breast): 35.1 µM | TGI (RXF 393 renal): 49.6 µM | TGI (NCI-H23 lung): 48.4 µM | TGI (A498 renal): > 90.9 µM | TGI (A549 NSCLC): > 100 µM | TGI (UO-31 renal): > 63.4 µM | TGI (MALME-3M melanoma): 19.2 µM | TGI (EKVX NSCLC): > 62.7 µM | TGI (LOX IMVI melanoma): > 59.9 µM | TGI (COLO 205 colon): 35.7 µM | TGI (CAKI-1 renal): > 69.5 µM | TGI (786-0 renal): 40.6 µM | TGI (MOLT-4 leukemia): > 65.6 µM | TGI (M14 melanoma): > 54.9 µM | TGI (RPMI-8226 leukemia): 55.5 µM | TGI (HOP-92 NSCLC): > 77.7 µM | TGI (TK-10 renal): > 66.9 µM | TGI (SR leukemia): 18.6 µM | TGI (SN12C renal): 30.2 µM | TGI (HL-60(TB) leukemia): 22 µM | TGI (SF-268 CNS): > 47.7 µM | TGI (T-47D breast): 8.66 µM | TGI (HCT-15 colon): > 100 µM | TGI (NCI/ADR-RES ovarian): 66.5 µM | TGI (NCI-H226 lung): > 59.7 µM | TGI (SF-539 CNS): > 75.2 µM | TGI (SK-MEL-28 melanoma): > 70 µM | TGI (HT29 colon): 41.4 µM | TGI (UACC-62 melanoma): 37.1 µM | TGI (IGROV1 ovarian): 36.5 µM | TGI (KM12 colon): > 40.8 µM | TGI (SNB-19 CNS): 35.5 µM | TGI (OVCAR-8 ovarian): > 59.7 µM | TGI (OVCAR-4 ovarian): > 33.1 µM | TGI (NCI-H460 lung): > 100 µM | TGI (SF-295 CNS): 44.9 µM | TGI (SNB-75 CNS): > 41 µM | TGI (HOP-62 NSCLC): 37.3 µM | TGI (SK-MEL-5 melanoma): 37.3 µM | TGI (CCRF-CEM leukemia): 34.3 µM | TGI (OVCAR-5 ovarian): > 78.3 µM | TGI (MDA-N): 20.8 µM | TGI (SW-620 colon): 47.1 µM | TGI (BT-549 breast): 44.8 µM | TGI (MDA-MB-435): 21.1 µM | TGI (UACC-257 melanoma): > 61.2 µM | TGI (HS 578T breast): > 60.6 µM | TGI (NCI-H522 lung): 22.2 µM | TGI (MDA-MB-231 breast): 27.3 µM | TGI (U251 CNS): 31 µM | TGI (OVCAR-3 ovarian): 9.03 µM | TGI (HCT-116 colon): 28.5 µM | TGI (SK-MEL-2 melanoma): > 75.2 µM | TGI (ACHN renal): > 66.2 µM | TGI (DU-145 prostate): > 87 µM
